The structures appear in SMILES notation.

The text below walks through data of US20260138978A1, “POSITIVE ALLOSTERIC MODULATORS OF THE MUSCARINIC ACETYLCHOLINE RECEPTOR M1” (Vanderbilt University, priority 2022, published 2026).

The target in assay [1] is T1, human mAChRM1 (Homo sapiens, UniProt P11229).
T1 construct: host or cells: CHO-K1
T1 sequence (P11229 1-460): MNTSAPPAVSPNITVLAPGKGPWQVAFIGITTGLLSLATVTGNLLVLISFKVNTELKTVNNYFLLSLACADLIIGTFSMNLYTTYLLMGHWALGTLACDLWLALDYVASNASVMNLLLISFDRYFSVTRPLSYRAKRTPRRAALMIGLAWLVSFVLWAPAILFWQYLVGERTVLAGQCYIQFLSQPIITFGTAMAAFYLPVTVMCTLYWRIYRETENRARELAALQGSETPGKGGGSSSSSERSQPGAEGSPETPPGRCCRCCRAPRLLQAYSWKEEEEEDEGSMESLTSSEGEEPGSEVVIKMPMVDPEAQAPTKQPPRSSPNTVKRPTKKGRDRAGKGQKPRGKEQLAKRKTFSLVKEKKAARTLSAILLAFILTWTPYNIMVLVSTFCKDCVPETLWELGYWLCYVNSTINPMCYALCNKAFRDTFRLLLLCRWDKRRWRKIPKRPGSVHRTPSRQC
Nature of the assay: mAChR M1 cell-based functional assay (calcium mobilization), positive allosteric modulator activity: increase in the EC20 acetylcholine response. The note with it: for Emax: PAM mode; for EC50: increase in the EC20 acetylcholine response, read-out: PAM Activity Human M1 EC50. The source says:
(§1) Chinese hamster ovary (CHO-K1) cells stably expressing rat (r)M1 were purchased from the American Type Culture Collection and cultured according to their indicated protocol. CHO cells stably expressing human (h)M2, hM3, and hM5 were described previously (Levey, et al., 1991); hM1 and hM4 cDNAs were purchased from Missouri S&T cDNA Resource; rM4 cDNA was provided by T. I. Bonner (National Institutes of Health, Bethesda, MD). rM2 and rM3 were cloned from a rat brain cDNA library and sequence verified. hM1, rM2, rM3, hM4, and rM4 cDNAs were used to stably transfect CHO-K1 cells purchased from the American Type Culture Collection using Lipofectamine 2000. To make stable rM2, hM2, rM3, hM4. and rM4 cell lines for use in calcium mobilization assays, these cells also were stably transfected with a chimeric G-protein (Gqi5) (provided by B. R. Conklin, University of California, San Francisco) using Lipofectamine 2000. rM1, hM1, rM3, hM3, rM5, and hM5 cells were grown in Ham's F-12 medium containing 10% heat-inactivated fetal bovine serum (FBS), 20 mM HEPES, and 50 μg/mL G418 sulfate. rM2-Gqi5, hM2-Gqi5, and hM4-Gqi5 cells were grown in the same medium also containing 500 µg/mL Hygromycin B. Stable rM4-Gqi5 cells were grown in DMEM containing 10% heat-inactivated FBS, 20 mM HEPES, 400 μg/mL G418 sulfate, and 500 μg/mL Hygromycin B.
(§2) For high throughput measurement of agonist-evoked increases in intracellular calcium, CHO-K1 cells stably expressing muscarinic receptors were plated in growth medium lacking G418 and hygromycin at 15,000 cells/[…] in Greiner 384-well black-walled, tissue culture (TC)-treated, clear-bottom plates (VWR). Cells were incubated overnight at 37° C. and 5% CO2. The next day, cells were washed using an ELX 405 (BioTek) with four washes (80 μL) of assay buffer then aspirated to 20 μL. Next, 20 μL of 16 μM Fluo-4/acetoxymethyl ester (Invitrogen, Carlsbad, CA) prepared as a 2.3 mM stock in DMSO and mixed in a 1:1 ratio with 10% (w/v) Pluronic F-127 and diluted in assay buffer was added to the wells and the cell plates were incubated for 50 min at 37° C. and 5% CO2. Dye was removed by washing with the ELX 405 (four 80 μL washes of assay buffer) then aspirated to 20 μL. Compound master plates were formatted in an 11 point CR^c format (1:3 dilutions) in 100% DMSO with a starting concentration of 10 mM using the BRAVO liquid handler (Agilent). Test compound CRCs were then transferred to daughter plates (240 nL) using the Echo acoustic plate reformatter (Labcyte, Sunnyvale, CA) and then diluted into assay buffer ([…]) to a 2× stock using a Thermo Fisher Combi (Thermo Fisher Scientific, Waltham, MA).
(§3) Calcium flux was measured using the Functional Drug Screening System (FDSS) 6000 (Hamamatsu Corporation, Tokyo, Japan) as an increase in the fluorescent static ratio. Compounds were applied to cells (20 μL, 2×) using the automated system of the FDSS 6000 at 4 s into the 300 s protocol and the data were collected at 1 Hz. […] Agonist activity was analyzed as a concentration-dependent increase in calcium mobilization upon compound addition. Emax values for agonist activity are expressed relative to the maximum for acetylcholine. Positive allosteric modulator activity was analyzed as a concentration-dependent increase in the EC20 acetylcholine response. Antagonist activity was analyzed as a concentration-dependent decrease in the EC80 acetylcholine response. Concentration-response curves were generated using a four-parameter logistical equation in XLfit curve fitting software (IDBS, Bridgewater, NJ) for Excel (Microsoft, Redmond, WA) or Prism (GraphPad Software, Inc., San Diego, CA).
Activity (EC50 and Emax) was determined in the mAChRM1 cell-based functional assay as described above and the data are shown in Table 16. The compound numbers correspond to the compound numbers used in Table 15.
(Calcium flux is commonly read through the fluorescence of an indicator in the cells.)

Assay [2] addresses T1, human mAChRM1. Nature of the assay: mAChR M1 cell-based functional assay (calcium mobilization), agonist activity upon compound addition, Emax relative to acetylcholine maximum. The note with it: for Agonist Activity Human M1 EC50 / EC50: calcium mobilization upon compound addition; for Emax: relative to the maximum for acetylcholine.
Excerpt: Lack of agonist activity may be measured as weak or no increase in calcium fluorescence in mAChRM1-transfected CHO-K1 cells in the presence of the compound, compared to the response of equivalent CHO-K1 cells in the absence of the compound. Lack of mAChRM1 agonist activity may be determined as a percent response relative to acetylcholine. For example, a disclosed compound may have less than or equal to 30%, 25%, 20%, 15%, 10%, 5%, or 1% mAChRM1 agonist activity relative to acetylcholine. A disclosed compound may have substantially no mAChRM1 agonist activity. […] The absence of mAChRM1 agonist activity may contribute to the avoidance of cholinergic adverse effect liability.
as §1, §2
as §3, with “Antagonist activity was analyzed as a concentration-dependent decrease in the EC80 acetylcholine response. Concentration-response curves were generated using a four-parameter logistical equation in XLfit curve fitting software (IDBS, Bridgewater, NJ) for Excel (Microsoft, Redmond, WA) or Prism (GraphPad Software, Inc., San Diego, CA).” left out

The term Emax denotes the size of the effect at its maximum, as opposed to the concentration needed. What is called EC50 is the concentration giving half of the maximal effect. For the molecule `CC(C)(O)c1ccc(-c2cc(F)c(CN3Cc4ncccc4C3=O)cc2F)cc1` [Compound 49, 6-((2,5-difluoro-4′-(2-hydroxypropan-2-yl)-[1,1′-biphenyl]-4-yl)methyl)-6,7-dihydro-5H-pyrrolo[3,4-b]pyridin-5-one], at human mAChRM1 [1], the Emax was 66% and the EC50 is 1.2 µM. The “Agonist Activity Human M1 EC50” value on human mAChRM1 [2] is “inactive”.

Take `Cn1cc2c(-c3cc(Cl)c(CN4Cc5ncccc5C4=O)c(Cl)c3)ccc(C(C)(C)O)c2n1` [Compound 64, 6-(2,6-dichloro-4-(7-(2-hydroxypropan-2-yl)-2-methyl-2H-indazol-4-yl)benzyl)-6,7-dihydro-5H-pyrrolo[3,4-b]pyridin-5-one]: at human mAChRM1 [1], the Emax was 63% and the EC50 was 0.145 µM. At human mAChRM1 [2], the EC50 worked out at 6.33 µM and the Emax was found to be 15%.

With `CC(C)(O)c1ccc(-c2cc(F)c(CN3Cc4ccncc4C3=O)c(F)c2)cc1` [Compound 141, 2-((3,5-difluoro-4′-(2-hydroxypropan-2-yl)-[1,1′-biphenyl]-4-yl)methyl)-1,2-dihydro-3H-pyrrolo[3,4-c]pyridin-3-one], at human mAChRM1 [1], the maximal response (Emax) was determined as 79% and the EC50 came out at 1.01 µM. Moreover, the “Agonist Activity Human M1 EC50” value at human mAChRM1 [2] is “inactive”.

`Cn1cc2c(-c3ccc(CN4Cc5ncccc5C4=O)c(F)c3)cc(C(C)(C)O)cc2n1` [Compound 26, 6-(2-fluoro-4-(6-(2-hydroxypropan-2-yl)-2-methyl-2H-indazol-4-yl)benzyl)-6,7-dihydro-5H-pyrrolo[3,4-b]pyridin-5-one]: at human mAChRM1 [1], the Emax turned out to be 83% and the EC50 amounted to 1.28 µM. At human mAChRM1 [2], the “Agonist Activity Human M1 EC50” value was “inactive”.

For the molecule `Cn1cc2c(-c3cc(F)c(CN4Cc5ncc(C6CC6)cc5C4=O)c(F)c3)ccc(C(C)(C)O)c2n1` [Compound 175, 3-cyclopropyl-6-(2,6-difluoro-4-(7-(2-hydroxypropan-2-yl)-2-methyl-2H-indazol-4-yl)benzyl)-6,7-dihydro-5H-pyrrolo[3,4-b]pyridin-5-one], at human mAChRM1 [1], the Emax was found to be 74% and the EC50 amounted to 2.59 µM. Also, the “Agonist Activity Human M1 EC50” value on human mAChRM1 [2] was “inactive”.

In the case of `Cn1cc2c(C(C)(C)O)cc(-c3ccc(CN4Cc5ncccc5C4=O)cc3)cc2n1` [Compound 23, 6-(4-(4-(2-hydroxypropan-2-yl)-2-methyl-2H-indazol-6-yl)benzyl)-6,7-dihydro-5H-pyrrolo[3,4-b]pyridin-5-one], on human mAChRM1 [1], the Emax was 48% and the EC50 was at least 10 µM. Besides, the “Agonist Activity Human M1 EC50” value on human mAChRM1 [2] was “inactive”.

With `CC(C)(O)c1ccc(-c2cc(F)c(CN3Cc4ncccc4C3=O)c(Cl)c2)cc1` [Compound 45, 6-((3-chloro-5-fluoro-4′-(2-hydroxypropan-2-yl)-[1,1′-biphenyl]-4-yl)methyl)-6,7-dihydro-5H-pyrrolo[3,4-b]pyridin-5-one], at human mAChRM1 [1], the Emax was 66% and the EC50 turned out to be 1.03 µM. For the same molecule, the “Agonist Activity Human M1 EC50” value at human mAChRM1 [2] is “inactive”.

With `Cc1cc(-c2cn(C)nc2C(C)(C)O)cc(F)c1CN1Cc2ncccc2C1=O` [Compound 30, 6-(2-fluoro-4-(3-(2-hydroxypropan-2-yl)-1-methyl-1H-pyrazol-4-yl)-6-methylbenzyl)-6,7-dihydro-5H-pyrrolo[3,4-b]pyridin-5-one], at human mAChRM1 [1], the Emax was 51% and the EC50 is at least 10 µM. For the same molecule, the “Agonist Activity Human M1 EC50” value at human mAChRM1 [2] is “inactive”.

Take `Cn1cc2c(-c3cc(F)c(CN4Cc5cccc(F)c5C4=O)c(F)c3)ccc(C3(O)COC3)c2n1` [Compound 159, 2-(2,6-difluoro-4-(7-(3-hydroxyoxetan-3-yl)-2-methyl-2H-indazol-4-yl)benzyl)-7-fluoroisoindolin-1-one]: at human mAChRM1 [1], the Emax was 81% and the EC50 stood at 0.118 µM. The “Agonist Activity Human M1 EC50” value at human mAChRM1 [2] is “inactive”.

For `Cn1cc2cc(-c3cc(F)c(CN4Cc5cccc(F)c5C4=O)cc3F)cc(C(C)(C)O)c2n1` [Compound 169, 2-(2,5-difluoro-4-(7-(2-hydroxypropan-2-yl)-2-methyl-2H-indazol-5-yl)benzyl)-7-fluoroisoindolin-1-one], at human mAChRM1 [1], the Emax is 76% and the half-maximal effective concentration (EC50) amounted to 0.591 µM. For the same molecule, at human mAChRM1 [2], the “Agonist Activity Human M1 EC50” value was “inactive”.

For the molecule `Cn1cc2c(-c3cc(F)c(CN4Cc5ncccc5C4=O)c(F)c3)ccc(C3(O)CCOCC3)c2n1` [Compound 92, 6-(2,6-difluoro-4-(7-(4-hydroxytetrahydro-2H-pyran-4-yl)-2-methyl-2H-indazol-4-yl)benzyl)-6,7-dihydro-5H-pyrrolo[3,4-b]pyridin-5-one], at human mAChRM1 [1], the Emax amounted to 81% and the half-maximal effective concentration (EC50) is 0.076 µM. Besides, at human mAChRM1 [2], the EC50 was 1.4 µM and the maximum response (Emax) was determined as 22%.

Turning to `CC(C)(O)c1cc(-c2ccc(CN3Cc4ncccc4C3=O)c(F)c2)c2[nH]nnc2c1` [Compound 75, 6-(2-fluoro-4-(5-(2-hydroxypropan-2-yl)-1H-benzo[d][1,2,3]triazol-7-yl)benzyl)-6,7-dihydro-5H-pyrrolo[3,4-b]pyridin-5-one], on human mAChRM1 [1], the Emax came to 45% and the EC50 is at least 10 µM. In addition, on human mAChRM1 [2], the “Agonist Activity Human M1 EC50” value is “inactive”.

Take `Cn1cc2c(-c3cc(F)c(CN4Cc5cccc(F)c5C4=O)cc3F)ccc(C(C)(C)O)c2n1` [Compound 163, 2-(2,5-difluoro-4-(7-(2-hydroxypropan-2-yl)-2-methyl-2H-indazol-4-yl)benzyl)-7-fluoroisoindolin-1-one]: on human mAChRM1 [1], the Emax stood at 78% and the EC50 was found to be 0.124 µM. Moreover, at human mAChRM1 [2], the EC50 is at least 10 µM and the Emax worked out at 11%.

With `Cn1cc2cc(-c3cc(F)c(CN4Cc5cccc(F)c5C4=O)c(F)c3)cc(C(C)(C)O)c2n1` [Compound 155, 2-(2,6-difluoro-4-(7-(2-hydroxypropan-2-yl)-2-methyl-2H-indazol-5-yl)benzyl)-7-fluoroisoindolin-1-one], at human mAChRM1 [1], the Emax is 75% and the EC50 turned out to be 0.358 µM. Besides, on human mAChRM1 [2], the “Agonist Activity Human M1 EC50” value is “inactive”.
